In brackets after ≈: the same amount, converted by molar mass.
Experiments:
Format in all cases: cell-based
[1] = system: Staphylococcus aureus ATCC 6538; assay: Minimal Kill Concentration (MKC) assay, 96 well plate; conditions: 20-minute contact time
Description: (§1) The MKC assay is a 96 well plate method to determine the minimum concentration of a test material or composition needed to kill Gram-negative and Gram-positive bacteria (Escherichia coli ATCC 8739 and Staphylococcus aureus ATCC 6538, respectively). The bacterial suspensions are prepared from 10× freezer stocks with 15% glycerol. The freezer stocks are centrifuged at 13,000×g (Eppendorf Centrifuge […] No. 5417 05483) for 1 minute. The supernatant is removed, and the cell pellet is resuspended in 1 mL saline (Sodium chloride solution 0.9%, Cytiva REF: Z1376), and then transferred to 9 mL saline. The target cfu/ml is 10^8, which is confirmed via serial diluting and plating on TSA plates (Tryptic Soy Agar-Sigma-Aldrich Cat #22091). Then 50 μL of bacteria is added to each well of a 96 well 0.5 mL V-Bottom plate (Greiner bio-one REF: 786201) to make a bacteria plate, one separate plate for each bacterium. The dilutions of the test compounds are prepared in a separate 96 well plate. The test compounds are tested at six dilutions in duplicates or with no replication diluted across the entire plate. The test compounds are prepared in Dimethyl Sulfoxide (Sigma Aldrich GR ACS Cat. No: MX1458-6) or sterile water at 2× the intended test concentration, and then serially diluted in the appropriate vehicle 1:2 across the plate using a multichannel. 50 μL from the test compound plate is added to each well in the bacteria plate all at once using an Integra VIAFLOW 96 channel pipette (Model: VIAFLO 96) and the Integra 300 μL Head (Part No. 6103). With addition of the 2× compounds bacteria plate, the compounds are diluted to a 1× test concentration. The addition of the test compounds to the bacteria wells starts the 20-minute contact time. The plates are mixed well using a Mix-Mate (Eppendorf SE). After 20 minutes, 1 μL from each well of the bacteria plate is transferred to premade Tryptic Soy Agar (TSA) plates (OmniTray Cell Culture Treated w/Lid Sterile, Cat. No: 165218) for spot plating using the Integra VIAFLOW 96 with the Integra 12.5 μL head (Part No. 6101). Then 4 μL from each well of the bacteria/compound plate is transferred to another 96 well plate containing 36 μL of neutralizer broth Modified Letheen Broth (BD Difco Letheen Broth, Modified REF 263010). The contact time is stopped at 20 minutes once the compound plate is neutralized. The plates are mixed well using a Mix-Mate and then 1 μL of the neutralizer+sample mix is transferred to a TSA OmniTray plate using the Integra VIAFLOW and Integra 12.5 μL head. The TSA spot plates are then incubated overnight for 20 hours at 37° C. in an Incubator. This process is done for both bacteria species. After overnight incubation, the plates are removed from the incubator and the results recorded by observing which dilutions had bacterial kill/growth. The last dilution that had kill for both replicates is recorded as the MKC. A positive control of Benzalkonium chloride (Sigma Aldrich Cat. No.: 12060-5G) and vehicle controls are always included in the test.

[2] = system: Escherichia coli ATCC 8739; assay: as above; conditions: 20-minute contact time
Description: as §1

[3] = system: Staphylococcus aureus ATCC #6538; assay: Minimum Inhibitory Concentration (MIC) assay with Minimum Biocidal Concentration (MBC); conditions: solvent DMSO; for MIC / MBC: Staphylococcus aureus, ATCC6538; for MIC: 24±2 hrs at 35° C., OD<50% of growth control, read-out: S. aureus MIC (ppm); for MBC: read-out: S. aureus MBC (ppm)
Description: The Minimum Inhibitory Concentration (MIC) assay is a 96-well high throughput method that determines the minimum concentration of an active required to inhibit the growth of microorganisms. Compounds are evaluated against the following microorganisms: Staphylococcus aureus ATCC #6538 (American Type Culture Collection, Manassas, Virginia, USA). To prepare solutions, the bacteria are streaked on Tryptic Soy Agar (TSA, Becton Dickinson DIFCO™ Tryptic Soy Agar, Franklin Lakes, NJ, USA) and incubated at 30-35° C. for 18-24 hrs. Confluent growth is transferred to saline (0.85% NaCl and turbidometrically adjusted to a target concentration of 10^7-10^8 CFU/ml. This inoculum solution is further diluted 1:1000 in Tryptic Soy Broth (TSB, Becton Dickinson, Franklin Lakes, NJ, USA) for assay use. Two-fold serial dilutions are prepared in Dimethylsulfoxide (DMSO, Thermo Scientific Pierce DMSO, Sequencing Grade) or sterile water for each test sample. In a sterile 96-well plate, each dilution is further diluted in broth inoculum such that each well contained 5% dilution and 95% broth inoculum. Bacteria and yeast plates were incubated on an orbital shaker (Heidolph Titramax 1000 Vibrating Platform Shaker, 200-300 rpm) for 24±2 hrs at 35° C. After incubation, the optical density (OD) of each well is measured in a spectrophotometer (Victor Nivo Multimode Plate Reader) at 600 nm. […] The MBC was determined as the most dilute concentration with no visible growth.

[4] = most dilute concentration with no visible growth on neutralizing agar

**Q.** Which results are given for CCCCCCCCC[C@@H](O)CC(=O)O [(3R)-3-hydroxydodecanoic acid]?
**A.** MKC (ppm) S. aureus ([1]; solvent water): 865 ppm; MKC (ppm) E. coli ([2]; solvent water): >865 ppm

**Q.** Which results are given for CCCCCCCCCC(O)CC(=O)O (racemic) [DL-β-Hydroxylauric acid]?
**A.** S. aureus MBC (ppm) [3, 4]: 650 ppm; MKC (ppm) S. aureus ([1]; solvent water): >865 ppm; MKC (ppm) E. coli ([2]; solvent water): >865 ppm

**Q.** Which “MKC (ppm) S. aureus” value ([1]; solvent DMSO) does the source give for CCCCCCCCCCCC(O)CC(=O)O (racemic) [DL-β-Hydroxymyristic acid] here?
**A.** 244 ppm

**Q.** What about the “MKC (ppm) E. coli” value ([2]; solvent DMSO) of the same molecule?
**A.** 122 ppm

**Q.** For CCCCCCCCCCCC(CC(=O)O)O[C@@H]1O[C@@H](C)[C@H](O)[C@@H](O)[C@H]1O (stereo partly drawn) [RhaC14, 3-(((2R,3R,4R,5R,6S)-3,4,5-trihydroxy-6-methyltetrahydro-2H-pyran-2-yl)oxy)tetradecanoic acid], which MIC [3] is on record?
**A.** 625 µg/mL (≈ 1.6 mM)

**Q.** What about the MBC [3, 4] of the same molecule?
**A.** > 10000 µg/mL

**Q.** And the “MKC (ppm) S. aureus” value ([1]; solvent DMSO)?
**A.** 781 ppm

**Q.** And the “MKC (ppm) E. coli” value ([2]; solvent DMSO)?
**A.** 781 ppm

**Q.** CCCCCCCC(CC(=O)O)O[C@@H]1O[C@@H](C)[C@H](O)[C@@H](O)[C@H]1O (stereo partly drawn) [RhaC10, 3-(((2R,3R,4R,5R,6S)-3,4,5-trihydroxy-6-methyltetrahydro-2H-pyran-2-yl)oxy)decanoic acid] was tested. Which MIC [3] did it give?
**A.** > 10000 µg/mL

**Q.** What about the MBC [3, 4] of the same molecule?
**A.** > 10000 µg/mL

**Q.** What about the “MKC (ppm) S. aureus” value ([1]; solvent water) of the same molecule?
**A.** >1338 ppm

**Q.** What about the “MKC (ppm) E. coli” value ([2]; solvent water) of the same molecule?
**A.** >1338 ppm

**Q.** For CCCCCCCCCCCCCC(O)CC(=O)O (racemic) [DL-β-Hydroxypalmitic acid], which “MKC (ppm) S. aureus” value ([1]; solvent DMSO) is on record?
**A.** >1090 ppm

**Q.** And the “MKC (ppm) E. coli” value ([2]; solvent DMSO)?
**A.** 136 ppm

**Q.** Which MBC [3, 4] does the source give for CCCCCCCC(O)CC(=O)O (racemic) [(±)-3-Hydroxydecanoic acid] here?
**A.** > 1130 µg/mL

**Q.** What about the “MKC (ppm) S. aureus” value ([1]; solvent water) of the same molecule?
**A.** 753 ppm

**Q.** And the “MKC (ppm) E. coli” value ([2]; solvent water)?
**A.** 753 ppm

**Q.** With CCCCCC(CC(=O)O)O[C@@H]1O[C@@H](C)[C@H](O)[C@@H](O)[C@H]1O (stereo partly drawn) [RhaC8, 3-(((2R,3R,4R,5R,6S)-3,4,5-trihydroxy-6-methyltetrahydro-2H-pyran-2-yl)oxy)octanoic acid] as the molecule, how does the MIC [3] read?
**A.** 10000 µg/mL (≈ 32.6 mM)

**Q.** And the MBC [3, 4]?
**A.** > 10000 µg/mL

**Q.** What about the “MKC (ppm) S. aureus” value ([1]; solvent water) of the same molecule?
**A.** >1225 ppm

**Q.** What about the “MKC (ppm) E. coli” value ([2]; solvent water) of the same molecule?
**A.** >1225 ppm

**Q.** How did the MIC [3] turn out when CCCCCCCCCC(CC(=O)O)O[C@@H]1O[C@@H](C)[C@H](O)[C@@H](O)[C@H]1O (stereo partly drawn) [RhaC12, 3-(((2R,3R,4R,5R,6S)-3,4,5-trihydroxy-6-methyltetrahydro-2H-pyran-2-yl)oxy)dodecanoic acid] was run?
**A.** 1250 µg/mL (≈ 3.45 mM)

**Q.** What about the MBC [3, 4] of the same molecule?
**A.** > 10000 µg/mL

**Q.** What about the “MKC (ppm) S. aureus” value ([1]; solvent water) of the same molecule?
**A.** 725 ppm

**Q.** What about the “MKC (ppm) E. coli” value ([2]; solvent water) of the same molecule?
**A.** >1450 ppm

**Q.** How did the “MKC (ppm) S. aureus” value ([1]; solvent water) turn out when CCCCCC(O)CC(=O)O (racemic) [(±)-3-Hydroxyoctanoic acid] was run?
**A.** >641 ppm

**Q.** And the “MKC (ppm) E. coli” value ([2]; solvent water)?
**A.** >641 ppm

Reference: patent US20260000078A1, “ANTI-MICROBIAL SYSTEM” (The Procter & Gamble Company, priority 2024, published 2026)
